Structures can show the parent of a compound that is named as a salt.

Glycogen synthase kinase-3 beta, sequence (P49841 whole entry): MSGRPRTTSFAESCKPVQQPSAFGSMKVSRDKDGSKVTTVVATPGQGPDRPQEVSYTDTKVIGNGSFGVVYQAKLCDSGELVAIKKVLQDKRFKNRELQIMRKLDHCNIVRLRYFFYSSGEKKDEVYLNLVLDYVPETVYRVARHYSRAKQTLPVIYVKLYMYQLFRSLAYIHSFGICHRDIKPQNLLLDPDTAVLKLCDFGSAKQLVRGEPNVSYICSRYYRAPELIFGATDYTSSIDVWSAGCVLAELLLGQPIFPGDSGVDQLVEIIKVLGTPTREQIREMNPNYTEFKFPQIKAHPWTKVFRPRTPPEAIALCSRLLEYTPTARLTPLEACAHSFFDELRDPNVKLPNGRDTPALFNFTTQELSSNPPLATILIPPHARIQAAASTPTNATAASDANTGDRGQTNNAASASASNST

The test addresses Glycogen synthase kinase-3 beta (Homo sapiens, UniProt P49841). Briefly: GSK3beta kinase inhibitor potency, dose response, biochemical, luminescence, cell-free homogeneous, retest (AID 434954).
What is called EC50 is the midpoint of the concentration-response curve. Lower therefore signals greater potency. In the case of `CC(=O)N1CCc2c(sc(NC(=O)CN3C(=O)c4ccccc4C3=O)c2C(N)=O)C1` [MLS000419451], the EC50 was determined as 19.5 µM. Under `COc1ccc(-c2nn(-c3ccccc3)cc2C=Nn2c(O)csc2=S)cc1` [MLS000558856] stands > 300 µM; under `COc1ccc(CN=Nc2ccc([N+](=O)[O-])cc2)cc1O` [MLS001198430], > 300 µM; under `O=C(/[O+]=N/[CH-]c1ccc(N2CCCCC2)c([N+](=O)[O-])c1)c1cccc(Cl)c1` [[(3-nitro-4-piperidin-1-yl-phenyl)methylideneamino] 3-chloranylbenzoate], > 300 µM. The same measure for `CCN1CCN(CC2COc3ccccc3O2)CC1` (stereo not drawn) [MLS001173643]: > 300 µM; for `CCN1CCN(CCCNC(=O)c2ccc3c(c2)NC(=O)/C(=C\c2cccc(C)c2)S3)CC1` [(2E)-N-[3-(4-ethyl-1-piperazinyl)propyl]-2-[(3-methylphenyl)methylidene]-3-oxo-4H-1,4-benzothiazine-6-carboxamide]: 16.1 µM; for `O=C(COC(=O)c1cc(=O)c2ccccc2o1)NC1CCCC1` [MLS001017387]: > 300 µM. Under `COc1ccc2cc(C(=O)CS(=O)(=O)c3ccccc3)c(=O)oc2c1` [3-[2-(benzenesulfonyl)acetyl]-7-methoxychromen-2-one] stands > 300 µM.

Consider `Cc1c(Cl)cccc1NC(=S)N(C)CCC#N` [3-(3-chloro-2-methylphenyl)-1-(2-cyanoethyl)-1-methylthiourea], for which the half-maximal effective concentration (EC50) was > 300 µM.

In the case of `O=C(Nc1ccc(-c2nc3ccccc3o2)cc1)c1ccc(N2CCOCC2)c([N+](=O)[O-])c1` [SMR000201361], the EC50 was > 300 µM.

In the case of `COc1ccc(C(=O)N/C(=C\c2ccco2)C(=O)NCCN2CCOCC2)cc1` [MLS000923740], the 50% effective concentration (EC50) was > 300 µM. Under `O=C(Nc1ccc(O)c2c(=O)cc(-c3ccccc3Cl)oc12)c1cccc(Cl)c1` stands 87.4 µM; under `COCCNc1nc(N)c([N+](=O)[O-])c(Nc2ccc(F)cc2)n1`, > 300 µM.

For the compound `Cc1nn(-c2ccccc2)cc1CN=O`, the EC50 was determined as 71.2 µM.

`Cn1nc(-c2ccccn2)nc2c(=O)n(C)c(=O)nc1-2` [1,6-dimethyl-3-(2-pyridinyl)pyrimido[5,4-e][1,2,4]triazine-5,7(1H,6H)-dione] displayed an EC50 of 46.2 µM. The same measure for `COc1cc(OC)c2c(-c3ccccc3)cc(=O)oc2c1` [5,7-dimethoxy-4-phenyl-chromen-2-one]: > 300 µM; for `O=C(COC(=O)C1CCN(S(=O)(=O)c2ccccc2)CC1)NC(=O)c1ccc(OC(F)F)cc1` [MLS000394677]: > 300 µM; for `O=C1Nc2ccccc2C1C=Nc1ccc2c(c1)OCO2` (stereo not drawn) [(3Z)-3-[(1,3-benzodioxol-5-ylamino)methylidene]-1H-indol-2-one]: 11.4 µM. Turning to `COc1cccc(-c2ccc3nnc(SCC(=O)Nc4ccc(NC(C)=O)cc4)n3n2)c1` [N-(4-acetamidophenyl)-2-[[6-(3-methoxyphenyl)-[1,2,4]triazolo[4,3-b]pyridazin-3-yl]sulfanyl]ethanamide], the concentration giving a half-maximal response (EC50) was > 300 µM. `COc1cc(C2C(C(=O)c3cccs3)C(=O)C(=O)N2CCN2CCOCC2)ccc1OCCC(C)C` (stereo not drawn) [SMR000476070]: the EC50 is > 300 µM. Under `O=C1N=C(N2CCc3ccccc3C2)S/C1=C\c1ccc(O)cc1` [MLS001043290] stands > 300 µM; under `Fc1cccc(Cl)c1CSc1nnc(-c2ccncc2)o1` [2-[(2-chloro-6-fluorophenyl)methylthio]-5-pyridin-4-yl-1,3,4-oxadiazole], 9.25 µM; under `CN(C)C=NC(=O)C(C#N)C1=Nc2ccccc2CC1` (stereo not drawn), 20.1 µM.

Take `COc1ccc(OC)c(Nc2nc(NCCC(C)C)nc(N)c2[N+](=O)[O-])c1` [4-N-(2,5-dimethoxyphenyl)-2-N-(3-methylbutyl)-5-nitropyrimidine-2,4,6-triamine]: the EC50 is > 300 µM. The same measure for `O=C(Nc1ccncc1)Nc1ccccn1` [1-pyridin-2-yl-3-pyridin-4-yl-urea]: 4.96 µM; for `NC(=O)C1CCN(C(=O)c2ccc(Oc3cc(Cl)cc(Cl)c3)o2)CC1` [1-[5-[3,5-bis(chloranyl)phenoxy]furan-2-yl]carbonylpiperidine-4-carboxamide]: > 300 µM; for `COc1cc(C(=O)OCC(=O)NC(N)=O)cc(CN2C(=O)c3ccccc3C2=O)c1OC`: > 300 µM. The same measure for `Cc1cc(C)c(C#N)c(SCC(=O)c2ccc(Cl)cc2Cl)n1` [2-[2-(2,4-dichlorophenyl)-2-oxidanylidene-ethyl]sulfanyl-4,6-dimethyl-pyridine-3-carbonitrile]: > 300 µM; for `COc1ccccc1-c1c(C(F)(F)F)oc2c(CN(C)C)c(O)ccc2c1=O` [MLS001206868]: > 300 µM. Regarding `CCOC(=O)C1C(C)=Nc2ncnn2C1c1ccccc1F` (stereo not drawn) [ethyl 7-(2-fluorophenyl)-5-methyl-4,7-dihydro[1,2,4]triazolo[1,5-a]pyrimidine-6-carboxylate], the EC50 is > 300 µM. With `Cc1nc(Nc2ccccc2)sc1C(=O)c1ccccc1` [(2-anilino-4-methyl-1,3-thiazol-5-yl)(phenyl)methanone], the midpoint of the response, the EC50, lay at 19.8 µM. The same measure for `CCN1CCN(c2c(C=O)c(Cl)nc3ccc(OC)cc23)CC1`: 5.67 µM; for `COC(=O)c1ccc(CSc2nnc(-c3ccncc3)o2)cc1`: > 300 µM; for `CC(C)Cn1nc(NC(=O)c2cccs2)c2cc3ccccc3nc21` [N-[1-(2-methylpropyl)-3-pyrazolo[3,4-b]quinolinyl]-2-thiophenecarboxamide]: 21.5 µM.

With `O=C(Nc1ccc2c(c1)OCO2)Nc1ccc(F)cc1F`, the EC50 is > 300 µM. As for `O=[N+]([O-])c1ccc(-n2nnnc2-c2ccccc2)c([N+](=O)[O-])c1` [1-{2,4-bisnitrophenyl}-5-phenyl-1H-tetraazole], the EC50 was > 300 µM. The same measure for `CCN(CC)C(=O)COC(=O)c1ccc(O)cc1` [[2-(diethylamino)-2-oxoethyl] 4-hydroxybenzoate]: > 300 µM; for `COc1cccc(C2c3c(n[nH]c3C)N=C3CC(C)(C)CC(=O)C32)c1` (stereo not drawn) [SMR000347812]: 0.958 µM; for `Clc1ccccc1Nc1nc(-c2ccncc2)nc2ccccc12` [MLS001163918]: > 300 µM. The same measure for `CCc1cccc(C)c1NC(=O)CSc1nnc(CCCOc2ccc(Cl)cc2Cl)n1C` [2-({5-[3-(2,4-dichlorophenoxy)propyl]-4-methyl-4H-1,2,4-triazol-3-yl}thio)-N-(2-ethyl-6-methylphenyl)acetamide]: > 300 µM; for `COc1ccc(-c2nn(-c3ccccc3)cc2C=Nn2cnnc2)cc1OC` [SMR000066046]: > 300 µM; for `CCN(CC)S(=O)(=O)c1ccc(O)c(C(=O)OCC(=O)Nc2cc(C)c(C)cc2[N+](=O)[O-])c1`: > 300 µM. The same measure for `CS(=O)(=O)N(CCc1ccccc1)CC(=O)N1CCN(c2ccccc2F)CC1`: > 300 µM. Regarding `Nn1c(SCc2cccc(Br)c2)nnc1-c1ccncc1` [3-(3-Bromo-benzylsulfanyl)-5-pyridin-4-yl-[1,2,4]triazol-4-ylamine], the EC50 is > 300 µM.

Take `CSc1nc(NCC(C)C)c2c3c(sc2n1)CN(C)CC3` [SMR000148856]: the EC50 is > 300 µM. Under `COc1ccccc1NC(=O)C(C)Nc1ccc(C)c(Cl)c1` (stereo not drawn) stands > 300 µM. Under `C[C@H](NC(=O)[C@@H]1CSC2c3ccccc3C(=O)N21)C(=O)NCc1c(F)cccc1Cl` (stereo partly drawn) [(3R)-N-[(2S)-1-[(2-chloro-6-fluorophenyl)methylamino]-1-oxopropan-2-yl]-5-oxo-3,9b-dihydro-2H-thiazolo[2,3-a]isoindole-3-carboxamide] stands > 300 µM; under `O=NCc1cn(-c2ccccc2)nc1-c1ccccc1` [1,3-diphenyl-4-pyrazolecarboxaldehyde oxime], 26 µM.

As to `COc1cccc(N(CC(=O)NCC2CCCO2)C(=O)CCC(=O)Nc2nccs2)c1` (stereo not drawn) [N'-(3-methoxyphenyl)-N'-[2-oxo-2-(oxolan-2-ylmethylamino)ethyl]-N-(1,3-thiazol-2-yl)butanediamide], the EC50 was > 300 µM. The same measure for `Cc1coc2cc3oc(=O)c(CCC(=O)NCCCN4CCCC4=O)c(C)c3cc12` [3-(3,5-dimethyl-7-oxo-6-furo[3,2-g][1]benzopyranyl)-N-[3-(2-oxo-1-pyrrolidinyl)propyl]propanamide]: > 300 µM; for `CC1(C)N=C(N)N=C(N)N1c1ccc(Oc2ccc(Cl)cc2)c(Cl)c1` [1-[3-chloro-4-(4-chlorophenoxy)phenyl]-6,6-dimethyl-1,3,5-triazine-2,4-diamine;hydrochloride]: > 300 µM. Under `Cn1c(SCc2nc(-c3ccccc3)no2)nnc1-c1ccco1` stands > 300 µM; under `Cc1ccc(SCc2c(C(=O)NN=Cc3ccoc3)nnn2-c2nonc2N)cc1` [SMR000647588], > 300 µM; under `N#Cc1c(O)nc(SCC(=O)c2cccs2)nc1-c1cccs1` [6-oxo-2-{[2-oxo-2-(2-thienyl)ethyl]sulfanyl}-4-(2-thienyl)-1,6-dihydro-5-pyrimidinecarbonitrile], > 300 µM. Take `CCOc1cc(C2c3c(n[nH]c3C)C(=O)N2c2ccc(Br)cc2)ccc1O` (stereo not drawn) [SMR000059772]: the EC50 was > 300 µM. The same measure for `Cc1cnc(NC(=O)c2sc(Nc3ccccc3)nc2N)o1` [MLS000762724]: 9.59 µM; for `CCN1CCN(C(=O)Cn2nc(C)n3c(cc4c(OC)cccc43)c2=O)CC1` [MLS001076371]: > 300 µM; for `Cc1ccc(C(=O)Nc2ncc([N+](=O)[O-])s2)cc1`: > 300 µM. Take `O=C(OCCCOC(=O)c1ccccc1O)c1ccccc1O` [2-hydroxybenzoic acid 3-[(2-hydroxyphenyl)-oxomethoxy]propyl ester]: the concentration for a half-maximal effect (EC50) was > 300 µM. The same measure for `Cc1ccc(-n2c(=O)c3c4c(sc3n3c(S)nnc23)CCC4)cc1` [SMR000419881]: 44.5 µM.

In the case of `O=C1NC(=O)c2c(NC(=O)C3CCCO3)cccc21` (stereo not drawn) [MLS000064410], the EC50 was > 300 µM. Under `CCOC(=O)c1cnc2ccc(OC)cc2c1NCCN1CCOCC1` [SMR000518517] stands > 300 µM; under `COc1cc(CN=Nc2ccc([N+](=O)[O-])cc2)ccc1OCC(=O)Nc1ccc(C)c(C)c1` [MLS000537060], > 300 µM.

Values taken from BindingDB's records for doi:10.7270/Q2TX3CTT (Broad Institute, 2010).
